Assay results reported in US8552058B2, “Application of L-n-butylphthalide in preventing and treating dementia” (CSPC Zhongqi Pharmaceutical Technology (Shijazhuang) Co., …, priority 2004, dated 2013).
Entries after “also recorded” stand apart in the source; their conditions may differ.

Assays:
Type in all cases: in vivo, Wistar rats
[1] = test system: Superoxide dismutase (SOD); test: SOD activity in cortex and hippocampus of hypoperfused (2-VO) rats; details: 10 mg/kg
malondialdehyde (MDA) [2] = test: MDA content in cortex and hippocampus of hypoperfused (2-VO) rats; details: 10 mg/kg
malondialdehyde (MDA) [3] = test: MDA content in cortex and hippocampus after continuous perfusion of Aβ (1-40); details: Aβ (1-40) rats; for MDA, hippocampus / MDA, cortex: n = 7; for MDA, hippocampus: model 1.48 ± 0.12, sham 1.13 ± 0.06; for MDA, cortex: model 1.48 ± 0.14, sham 1.10 ± 0.09
Protocol: Male Wistar rats, which were 10-weeks old and weighed approximately 280 grams, were used. One animal was placed in one cage, while the room temperature was kept at 23° C., with food and water freely accessible. Rats were anaesthetized with sodium pentobarbital (40 mg/kg), and were fixed to stereotaxic apparatus with the position of ventral decubitus. Head skin was cut open, a cannula for Aβ (1-40) perfusion was implanted into right ventricle. According to the stereotaxic profile of rat brain by Paxions and Watson, the implantation site was located 0.3 mm behind and 1.1 mm in the right side of anterior fontanelle, with the depth of 4.0 mm. The cannula was connected to a micro-osmotic pump. The pump was placed on the back of the rat. Aβ (1-40) was dissolved in 35% acetonitrile/0.1% trifluroacetic acid, and was continuously perfused intracerebroventricularly (i.c.v.) at 300 pmol/day, while only the solvent (35% acetonitrile/0.1% trifluroacetic acid) was perfused in the control group.
Rats were randomly classified into […] groups, with 10 animals per group. 1) the sham surgery group: only 35% acetonitrile/0.1% trifluroacetic acid+solvent was perfused into the ventricles of the rats; 2) the model group: Aβ (1-40)+solvent; 3) Aβ (1-40)+L-NBP 10 mg/kg group; 4) Aβ (1-40)+L-NBP 30 mg/kg group. Respective drug or solvent was drenched since the 2nd day after the surgery. The water maze experiment was performed on the 9-13 day after the surgery, while the platform exploration experiment was performed on the 13th day, and the working memory test was performed on the 14-16th days. Animals were decapitated to remove brains for biochemical assay on the 17th day. In all ethological tests, medicines were administered 40 minutes prior to the respective test.
Malondialdehyde (MDA) and glutathione peroxidase (GSH-Px) were determined by the same assays as above.
All results were expressed in mean±standard error. Comparison of latencies between groups in water maze experiment was performed using two-factor analysis of variance in replicate. Comparison between groups was performed using post hoc LSD or Turkey test. Platform exploration test in water maze experiment, working memory test and biochemical assay were analyzed using one-factor analysis of variance. A difference was considered significant when p<0.05.

## CCCC[C@@H]1OC(=O)c2ccccc21 [L-NBP, L-n-butylphthalide]
[1]; 2-VO rats, p<0.05
  SOD activity in hippocampus after treatment (in words): returned close to the normal level
[1]; hypoperfused rats, n = 7-9, solvent control 81.16 ± 6.84, sham 57.90 ± 7.41, p<0.05 vs solvent control
  SOD activity, hippocampus: 57.60 ± 3.86 NU/mg protein
[1]; hypoperfused rats, n = 7-9, solvent control 114.42 ± 7.82, sham 100.07 ± 3.64
  SOD activity, cortex: 98.84 ± 5.53 NU/mg protein
Malondialdehyde (MDA) [2]; 2-VO rats, vs model group, p<0.001
  reduction of MDA content in cortex: 20.7%
Malondialdehyde (MDA) [2]; hypoperfused rats, n = 7-9, solvent control 3.63 ± 0.45, sham 3.03 ± 0.12
  MDA content, hippocampus: 3.42 ± 0.12 nmol/mg protein
Malondialdehyde (MDA) [2]; hypoperfused rats, n = 7-9, solvent control 3.91 ± 0.22, sham 3.13 ± 0.10, p<0.001 vs solvent control
  MDA content, cortex: 3.10 ± 0.09 nmol/mg protein
Malondialdehyde (MDA) [3]; 10 mg/kg, p<0.01 vs model
  MDA, hippocampus: 1.12 ± 0.07 nmol/mg protein
Malondialdehyde (MDA) [3]; 10 mg/kg, p<0.05 vs model
  MDA, cortex: 1.06 ± 0.05 nmol/mg protein
Malondialdehyde (MDA) [3]; 10 mg/kg, vs model, p<0.01
  reduction of hippocampal MDA content: 24.3%
Malondialdehyde (MDA) [3]; 10 mg/kg, vs model, p<0.05
  reduction of cortical MDA content: 28.4%
Malondialdehyde (MDA) [3]; 30 mg/kg, p<0.05 vs model
  MDA, hippocampus: 1.15 ± 0.07 nmol/mg protein
  MDA, cortex: 1.06 ± 0.10 nmol/mg protein
Malondialdehyde (MDA) [3]; 30 mg/kg, vs model group p<0.05
  effect on cortical and hippocampal MDA content (in words): weaker than that in the 10 mg/kg group, yet were still significantly different; also recorded: a little weaker in the 30 mg/kg group than in the 10 mg/kg group, yet still significantly different
